Data on 2 compounds can be found in patent publication US6864246B2, “Anilide and cyclodextrin complexes, their preparation and their use as medicine in particular for treating dyslipidemiae” (Pierre Fabre Medicament, priority 2001, dated 2005).

Data set [1] in a line: Solubility at saturation of F12511 in solvents at 25° C. Type of data set: physicochemical. Conditions: thermodynamic from solid. The protocol:
By way of example, the table below gives some characteristic solubilities at saturation, at 25° C.: […]

For data set [2] the following is noted: 1 h.
A short description of another data set: physchem. The following applies: 25 °C, aqueous with cosolvent or surfactant or cyclodextrin, thermodynamic from solid.
For data set [3] the following is noted: 25° C.; cited from earlier work.
Where [4] appears, read: Amount of F12511 solubilized in a solution of sodium lauryl sulfate at 5%.

In brackets after ≈: the same amount, converted by molar mass. Read-outs that look alike come from different tables or passages of the source.

Turning to `CCCCCCCCCCCCS[C@H](C(=O)Nc1cc(C)c(O)c(C)c1C)c1ccccc1` [Example F12511, (S)-2′,3′,5′-trimethyl-4′-hydroxy-α-dodecylthiophenylacetanilide], the solubility is 1000 µg/mL (≈ 2130 µM) in data set [1] (Macrogol 400, 25 °C, organic solvent or mixture, Macrogol 400, 25° C., read-out: Solubility at saturation); 300 µg/mL (≈ 639 µM) in data set [1] (corn oil, 25 °C, oil or lipid, Corn oil, 25° C., read-out: Solubility at saturation); 7000 µg/mL (≈ 14900 µM) in data set [1] (ethanol, 25 °C, organic solvent or mixture, Ethanol, 25° C., read-out: Solubility at saturation); no more than 2000 µg/mL in data set [1] (ethyl alcohol at 95%, 25 °C, organic solvent or mixture, ethyl alcohol at 95%, read-out: Solubility at saturation); less than 0.05 µg/mL in data set [1] (water, 25 °C, water, Water, 25° C., limit of analytical detection, read-out: Solubility at saturation); less than 0.05 µg/mL in data set [1] (water, 25 °C, water, water, limit of analytical detection, read-out: Solubility at saturation in water). Also, in data set [2], the “Amount of F12511 solubilized in a solution of sodium lauryl sulfate at 5%” value was found to be 5 µg/mL. Further, the figures for the solubility at 2 h in the data set “physchem” (Amount of F12511 solubilized) and in the data set “physchem” (setting [4]) were roughly 10 µg/mL (≈ 21.3 µM) and 11 µg/mL (≈ 23.4 µM), respectively. In “physchem” (setting [4]), this compound yielded a solubility at 5 min of 1 µg/mL (≈ 2.13 µM). This compound also came in with a solubility at 30 min in the data set “physchem” (setting [4]) of 3 µg/mL (≈ 6.39 µM). In the data set “physchem” (setting [4]), this compound registered a solubility at 1 h of 5 µg/mL (≈ 10.6 µM).
Turning to `OC[C@H]1O[C@@H]2O[C@H]3[C@H](O)[C@@H](O)[C@@H](O[C@H]4[C@H](O)[C@@H](O)[C@@H](O[C@H]5[C@H](O)[C@@H](O)[C@@H](O[C@H]6[C@H](O)[C@@H](O)[C@@H](O[C@H]7[C@H](O)[C@@H](O)[C@@H](O[C@H]1[C@H](O)[C@H]2O)O[C@@H]7CO)O[C@@H]6CO)O[C@@H]5CO)O[C@@H]4CO)O[C@@H]3CO` [α-cyclodextrin], in data set [3], the Water-solubility is recorded as 14.2 g % ml,.
